Test results taken from US9573956B2, “Compounds as dual inhibitors of phosphodiesterases and histone deacetylases” (FUNDACIÓN PARA LA INVESTIGACIÓN MÉDICA APLICADA, priority 2013, dated 2017).
pEC50, pIC50: −log10 of the molar value. Marks after values point to notes of the source that are not given here.

Legend:
HDAC2 = target: T1, HDAC2 (Homo sapiens, UniProt Q92769); test: HDAC enzyme activity assay (fluorogenic substrate), HDAC2; type: biochemical; settings: recombinant enzyme; read-out: HDAC2 inhibition (IC50)
T1 construct: NM_001527; Cat. #50002) is full-length with C-terminal his tag; His (C); purchased BPS Biosciences 50002; host or cells: baculovirus infected Sf9 cells
T1 sequence (Q92769 whole entry): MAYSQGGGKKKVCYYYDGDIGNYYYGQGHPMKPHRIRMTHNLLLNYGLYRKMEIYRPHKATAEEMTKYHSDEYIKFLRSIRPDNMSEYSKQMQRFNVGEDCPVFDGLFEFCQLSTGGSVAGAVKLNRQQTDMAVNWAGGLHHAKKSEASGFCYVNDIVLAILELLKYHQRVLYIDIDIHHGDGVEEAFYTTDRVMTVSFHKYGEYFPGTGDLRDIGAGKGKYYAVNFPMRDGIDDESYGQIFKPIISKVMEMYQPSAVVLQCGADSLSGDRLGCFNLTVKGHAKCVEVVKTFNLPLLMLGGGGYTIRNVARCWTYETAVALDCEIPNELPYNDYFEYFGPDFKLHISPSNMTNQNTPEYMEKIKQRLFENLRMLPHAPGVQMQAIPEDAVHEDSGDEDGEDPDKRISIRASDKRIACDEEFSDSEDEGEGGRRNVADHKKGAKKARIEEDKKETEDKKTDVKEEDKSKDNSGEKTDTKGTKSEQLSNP

[1] = Pharmacokinetics, plasma and brain concentrations in wild type mice; type: in vivo; settings: mouse, ip; for CMax (brain; nmol/Kg): in vivo; for Tmax / Cmax: single intraperitoneal injection, wild type mice; for Tmax: time of maximum concentration in brain; for Cmax: plasma, at tMax, (Standard Deviation)
Method: Plasma and brain samples for measuring compounds concentrations were collected at predetermined times from four wild type mice per point. Three time points were measured: 0.25, 0.5 and 1.0 hour. Compounds concentration was measured using a Xevo-TQ MS triple quadropole mass spectrometer with an electrospray ionization (ESI) source and an Acquity UPLC (Waters, Manchester, UK).
[…]. Compounds were injected as a single intraperitoneal injection. Animals were killed by decapitation.
Plasma. Blood was collected into tubes containing EDTA and plasma was collected via centrifugation (4° C., 13200 rpm, 5 min) and stored at −80° C. until analysis.
Brain. Brains were collected immediately after mice death. The brains were excised, weighed and frozen at −80° C. until further process for analysis.
Chromatographic separation was performed by gradient elution at 0.4 mL/min using an Acquity UPLC BEH C18 column (100×2.1 mm, 1.7 μm particle size; Waters). The mobile phase consisted of A: water with 0.1% formic acid, B: methanol with 0.1% formic acid. After 1.5 min at the initial condition of 95% A, solvent B was increased from 5% to 100% over 2 min, maintained at 100% for 1.5 min, then a linear gradient to initial conditions was applied for 0.1 min and maintained for 3.4 minutes to re-equilibrate the column, giving a cycle time of 8.5 min. The autosampler temperature was set at 10° C. and column temperature at 45° C.
Compounds were monitored using a triple quadrupole mass spectrometer equipped with an electrospray ionization interface. For detection and quantification, a capillary voltage of 3.5 kV and a cone voltage of 38 V were used. Source and desolvation temperatures were 150° C. and 650° C., respectively. Ultra-high purity nitrogen was used for cone gas (75 L h^−1) and desolvation gas (1000 L h^−1). The electrospray ionization operated in the positive mode, and the collision gas used was ultra-pure argon at a flow rate of 0.15 mL min^−1.
Quantification was achieved by external calibration using matrix-matched standards. Concentrations were calculated using a weighted least-squares linear regression (W=1/×). […]. The mixture was then agitated for 10 min and centrifuged at 13200 rpm for 5 min at 4° C. The resulting supernatants were transferred to a Ostro plate (Waters, Manchester, UK), designed to remove phospholipids. The resulting eluents were evaporated at 37° C. under a stream of nitrogen. Residues were dissolved in 75 μL of a mixture of methanol and water (50:50, v:v). A 10-uL aliquot of the resulting solution was injected onto the LC-MS/MS system for analysis. Frozen plasma samples were thawed at room temperature, vortexed thoroughly and subjected to the above described extraction procedure. Brain samples were thawed unassisted at room temperature and homogenized using a Branson 250 ultrasonic sonifier (Branson, Danbury, Conn., USA). When homogenized, 75 mg were weighted and extracted as described previously.
Concentration values obtained from the LC-MS/MS analyses are described in Table 4.

HDAC6 = target: T2, HDAC6 (Homo sapiens, UniProt Q9UBN7); test: HDAC enzyme activity assay (fluorogenic substrate), HDAC6; type: biochemical; settings: recombinant enzyme; read-out: HDAC6 inhibition (IC50)
T2 construct: BC069243; Cat. #50006) is full-length with N-terminal GST tag; GST (N); purchased BPS Biosciences 50006; host or cells: baculovirus infected Sf9 cells
T2 sequence (Q9UBN7 1-1215): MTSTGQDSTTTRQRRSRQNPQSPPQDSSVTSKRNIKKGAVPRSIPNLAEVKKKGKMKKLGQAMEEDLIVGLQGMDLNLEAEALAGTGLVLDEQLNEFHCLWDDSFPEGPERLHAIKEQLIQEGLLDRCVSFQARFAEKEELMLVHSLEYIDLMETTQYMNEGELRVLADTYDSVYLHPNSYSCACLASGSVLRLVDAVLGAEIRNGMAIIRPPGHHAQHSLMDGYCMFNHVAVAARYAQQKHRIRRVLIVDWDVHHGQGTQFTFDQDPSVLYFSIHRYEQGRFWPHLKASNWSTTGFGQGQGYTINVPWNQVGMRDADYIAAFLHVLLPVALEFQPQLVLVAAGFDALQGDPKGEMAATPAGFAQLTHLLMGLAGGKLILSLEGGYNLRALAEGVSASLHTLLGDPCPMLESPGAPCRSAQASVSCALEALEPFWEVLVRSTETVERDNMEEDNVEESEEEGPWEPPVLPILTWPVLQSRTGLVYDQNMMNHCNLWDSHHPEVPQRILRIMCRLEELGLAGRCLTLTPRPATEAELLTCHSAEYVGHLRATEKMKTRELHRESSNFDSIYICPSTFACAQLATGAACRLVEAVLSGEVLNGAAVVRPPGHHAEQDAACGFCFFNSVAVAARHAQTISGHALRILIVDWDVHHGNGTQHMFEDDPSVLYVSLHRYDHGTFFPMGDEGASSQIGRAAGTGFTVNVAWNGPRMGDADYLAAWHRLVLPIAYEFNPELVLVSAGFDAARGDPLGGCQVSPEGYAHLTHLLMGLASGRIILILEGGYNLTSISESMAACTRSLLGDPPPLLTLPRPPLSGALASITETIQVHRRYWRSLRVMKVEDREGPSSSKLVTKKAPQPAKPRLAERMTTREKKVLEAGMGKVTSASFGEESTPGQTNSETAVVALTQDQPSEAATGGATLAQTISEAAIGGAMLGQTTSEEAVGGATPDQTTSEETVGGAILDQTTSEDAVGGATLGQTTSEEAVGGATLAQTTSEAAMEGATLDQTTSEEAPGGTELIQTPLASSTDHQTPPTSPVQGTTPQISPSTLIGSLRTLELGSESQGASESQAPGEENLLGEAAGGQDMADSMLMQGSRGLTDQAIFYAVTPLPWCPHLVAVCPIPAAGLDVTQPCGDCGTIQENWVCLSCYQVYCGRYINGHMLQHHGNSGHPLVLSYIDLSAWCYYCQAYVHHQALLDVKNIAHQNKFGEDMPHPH

[2] = test system: phosphorylated tau (p-tau); test: AD-related markers in Tg2576 neurons: pTau; type: cell-based; settings: Mus musculus, Neuron, 48 h, treated two days, EC50 = 50% decrease in pTau over basal
PDE9A isoform b = target: T3, PDE9A isoform b (Homo sapiens, UniProt O76083); test: PDE enzyme activity assay (HTRF cGMP), PDE9A; type: biochemical; settings: recombinant enzyme; read-out: PDE9A inhibition (IC50)
T3 construct: they are full-length with N-terminal GST tag; GST (N); purchased BPS Biosciences 60090; host or cells: baculovirus infected Sf9 cells
T3 sequence (O76083 1-533 isoform O76083-2): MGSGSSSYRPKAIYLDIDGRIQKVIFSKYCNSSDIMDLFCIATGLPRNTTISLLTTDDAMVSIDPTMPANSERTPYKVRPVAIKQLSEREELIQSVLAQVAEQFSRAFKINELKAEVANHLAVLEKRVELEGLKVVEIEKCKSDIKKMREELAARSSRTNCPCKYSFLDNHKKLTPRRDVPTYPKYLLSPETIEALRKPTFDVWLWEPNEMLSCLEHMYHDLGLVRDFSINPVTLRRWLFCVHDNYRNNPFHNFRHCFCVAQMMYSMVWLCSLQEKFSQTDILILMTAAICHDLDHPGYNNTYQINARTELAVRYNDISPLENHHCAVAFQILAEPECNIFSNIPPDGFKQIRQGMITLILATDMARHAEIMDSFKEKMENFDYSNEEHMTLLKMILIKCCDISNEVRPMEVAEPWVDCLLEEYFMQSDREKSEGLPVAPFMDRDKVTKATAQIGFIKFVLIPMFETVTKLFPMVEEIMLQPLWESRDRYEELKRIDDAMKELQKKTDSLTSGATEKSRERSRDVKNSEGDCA

CCCc1nn(C)c2c(=O)[nH]c(-c3cc(Cc4ccc(C(=O)NO)s4)ccc3OCC)nc12 [Example 1-16]
pIC50 (HDAC2): 5.00 to 6.00
CMax (brain; nmol/Kg) ([1]; 20 mg/kg): 102 (7)^c nmol/Kg
Tmax ([1]; dosage 20 mg/Kg): 30 min
Cmax ([1]; dosage 20 mg/Kg): 11800 nM
pIC50 (HDAC6): 6.00 to 8.00
pEC50 [2]: 6.00 to 8.00

CCCc1nn(C)c2c(=O)[nH]c(-c3cc(S(=O)(=O)N4CCN(c5ncc(C(=O)NO)cn5)CC4)ccc3OCC)nc12 [Example 1-06, 2-(4-[3-(6,7-Dihydro-1-methyl-7-oxo-3-propyl-1H-pyrazolo[4,3-d]pyrimidin-5-yl)-4-ethoxyphenylsulfonyl]piperazin-1-yl)-N-hydroxypyrimidine-5-carboxamide]
pIC50 (HDAC2): 6.00 to 8.00
CMax (brain; nmol/Kg) ([1]; 20 mg/kg): 5.8 (1.8)^c nmol/Kg
Tmax ([1]; dosage 20 mg/Kg): 15 min
Cmax ([1]; dosage 20 mg/Kg): 283 nM
pIC50 (HDAC6): 6.00 to 8.00
pIC50 (PDE9A isoform b): < 5.00

CCCc1nn(C)c2c(=O)[nH]c(-c3cc(Cc4ccc(C(=O)NO)cc4)ccc3OCC)nc12 [Example 1-15, 4-[[4-ethoxy-3-(1-methyl-7-oxo-3-propyl-6H-pyrazolo[4,3-d]pyrimidin-5-yl)phenyl]methyl]benzenecarbohydroxamic acid]
pIC50 (HDAC2): 5.00 to 6.00
CMax (brain; nmol/Kg) ([1]; 20 mg/kg): 29 (8)^c nmol/Kg
Tmax ([1]; dosage 20 mg/Kg): 15 min
Cmax ([1]; dosage 20 mg/Kg): 653 nM
pIC50 (HDAC6): 6.00 to 8.00

CCCc1nn(C)c2c(=O)[nH]c(-c3cc(CC4CC(C(=O)NO)C4)ccc3OCC)nc12 (racemic) [Example 1-19, 3-[[4-ethoxy-3-(1-methyl-7-oxo-3-propyl-6H-pyrazolo[4,3-d]pyrimidin-5-yl)phenyl]methyl]cyclobutanecarbohydroxamic acid]
pIC50 (HDAC2): 6.00 to 8.00
CMax (brain; nmol/Kg) ([1]; 40 mg/kg): 609 (178)^c nmol/Kg
Tmax ([1]; dosage 40 mg/Kg): 15 min
Cmax ([1]; dosage 40 mg/Kg): 15800 nM
pIC50 (HDAC6): 6.00 to 8.00
pEC50 [2]: 6.00 to 8.00
